Reference: ChEMBL document CHEMBL3098003, “Structure-based design of 2-aminopyridine oxazolidinones as potent and selective tankyrase inhibitors” (ACS Med Chem Lett, 2013)

Assays:
Tankyrase 1/2 [1] = biological target: T1, Tankyrase 1/2 (Homo sapiens, UniProt Q9H2K2+O95271); assay: Inhibition of tankyrase in human SW480 cells assessed as degradation of total beta-catenin after 40 to 48 hrs; type: cell-based
T1 sequence (Q9H2K2 whole entry): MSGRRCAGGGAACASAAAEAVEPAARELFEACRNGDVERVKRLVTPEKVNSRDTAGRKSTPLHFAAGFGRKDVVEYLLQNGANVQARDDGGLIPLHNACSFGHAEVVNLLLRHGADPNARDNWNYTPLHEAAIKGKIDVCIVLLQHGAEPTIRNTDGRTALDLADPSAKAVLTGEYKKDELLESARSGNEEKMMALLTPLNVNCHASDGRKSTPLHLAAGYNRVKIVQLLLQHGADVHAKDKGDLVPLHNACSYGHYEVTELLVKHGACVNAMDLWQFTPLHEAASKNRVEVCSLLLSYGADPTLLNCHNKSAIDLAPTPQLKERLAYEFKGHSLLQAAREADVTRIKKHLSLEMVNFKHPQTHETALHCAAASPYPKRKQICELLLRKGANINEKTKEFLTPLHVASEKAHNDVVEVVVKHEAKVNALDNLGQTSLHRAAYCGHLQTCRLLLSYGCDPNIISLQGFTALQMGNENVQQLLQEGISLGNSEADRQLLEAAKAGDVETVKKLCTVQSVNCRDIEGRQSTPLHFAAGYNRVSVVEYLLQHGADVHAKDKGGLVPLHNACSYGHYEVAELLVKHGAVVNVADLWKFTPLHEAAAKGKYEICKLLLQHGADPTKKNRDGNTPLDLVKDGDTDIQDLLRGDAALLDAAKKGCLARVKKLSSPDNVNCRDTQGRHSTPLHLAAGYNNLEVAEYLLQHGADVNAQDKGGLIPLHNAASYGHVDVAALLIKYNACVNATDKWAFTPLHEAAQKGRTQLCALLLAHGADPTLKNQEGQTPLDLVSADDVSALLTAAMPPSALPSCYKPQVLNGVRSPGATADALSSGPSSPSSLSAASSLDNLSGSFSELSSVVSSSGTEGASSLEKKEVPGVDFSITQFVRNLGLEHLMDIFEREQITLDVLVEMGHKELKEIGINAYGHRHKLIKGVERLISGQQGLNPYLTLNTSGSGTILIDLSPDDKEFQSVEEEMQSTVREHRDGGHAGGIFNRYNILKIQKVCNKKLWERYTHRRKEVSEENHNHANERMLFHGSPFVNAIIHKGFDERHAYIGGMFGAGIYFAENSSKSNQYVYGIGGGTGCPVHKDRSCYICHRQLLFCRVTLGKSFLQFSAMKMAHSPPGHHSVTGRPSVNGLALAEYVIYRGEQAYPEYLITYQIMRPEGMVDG
T1 sequence (O95271 whole entry): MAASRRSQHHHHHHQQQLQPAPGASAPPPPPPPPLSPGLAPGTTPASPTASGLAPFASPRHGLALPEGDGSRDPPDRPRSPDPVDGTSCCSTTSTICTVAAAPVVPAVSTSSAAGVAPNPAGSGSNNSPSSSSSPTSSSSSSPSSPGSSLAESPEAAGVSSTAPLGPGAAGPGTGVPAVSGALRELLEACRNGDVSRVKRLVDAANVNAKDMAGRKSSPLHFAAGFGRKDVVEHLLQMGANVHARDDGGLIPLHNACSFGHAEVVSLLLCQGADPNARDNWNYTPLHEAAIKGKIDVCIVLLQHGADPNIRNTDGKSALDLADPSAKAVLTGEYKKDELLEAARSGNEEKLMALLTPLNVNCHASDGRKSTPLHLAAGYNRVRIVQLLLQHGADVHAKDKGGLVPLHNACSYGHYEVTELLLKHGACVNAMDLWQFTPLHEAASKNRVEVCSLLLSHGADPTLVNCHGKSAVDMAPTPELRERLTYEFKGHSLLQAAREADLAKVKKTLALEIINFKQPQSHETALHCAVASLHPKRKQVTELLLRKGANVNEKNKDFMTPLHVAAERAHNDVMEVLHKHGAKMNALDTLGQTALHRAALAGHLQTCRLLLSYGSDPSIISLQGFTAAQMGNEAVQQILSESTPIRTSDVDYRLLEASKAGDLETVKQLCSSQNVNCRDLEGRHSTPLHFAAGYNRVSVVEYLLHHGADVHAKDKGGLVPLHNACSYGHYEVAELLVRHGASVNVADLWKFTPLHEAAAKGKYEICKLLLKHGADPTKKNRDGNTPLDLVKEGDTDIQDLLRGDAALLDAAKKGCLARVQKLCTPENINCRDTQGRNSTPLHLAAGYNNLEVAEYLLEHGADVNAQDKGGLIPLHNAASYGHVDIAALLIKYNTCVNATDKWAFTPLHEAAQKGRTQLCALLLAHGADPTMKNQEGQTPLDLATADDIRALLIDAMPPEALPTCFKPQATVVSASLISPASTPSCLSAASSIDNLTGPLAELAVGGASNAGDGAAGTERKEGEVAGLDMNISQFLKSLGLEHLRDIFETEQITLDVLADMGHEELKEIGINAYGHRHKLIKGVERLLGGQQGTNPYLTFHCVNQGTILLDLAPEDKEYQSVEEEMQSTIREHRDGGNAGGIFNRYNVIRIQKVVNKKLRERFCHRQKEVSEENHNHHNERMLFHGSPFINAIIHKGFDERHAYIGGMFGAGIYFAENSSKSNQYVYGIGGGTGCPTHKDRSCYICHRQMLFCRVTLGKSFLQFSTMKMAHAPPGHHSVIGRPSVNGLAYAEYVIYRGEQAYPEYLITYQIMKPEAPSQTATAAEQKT

[2] = biological target: T2, Poly [ADP-ribose] polymerase tankyrase-1 (Homo sapiens, UniProt O95271); assay: Inhibition of recombinant 6XHis-tagged TNKS1 (1091 to 1325) (unknown origin) after 60 mins by spectrophotometric analysis
T2 sequence (O95271 whole entry): T1 sequence (O95271 whole entry)

Tankyrase 1/2 [3] = biological target: T1, Tankyrase 1/2; assay: Inhibition of tankyrase in human DLD1 cells assessed as inhibition of Wnt gene transcription after 40 to 48 hrs by STF assay; type: cell-based; settings: dld-1
Tankyrase 1/2 [4] = biological target: T1, Tankyrase 1/2; assay: Inhibition of tankyrase in human SW480 cells assessed as axin2 accumulation after 24 hrs by Hoechst dye-based assay; type: cell-based
[5] = biological target: Poly [ADP-ribose] polymerase 2 (Homo sapiens, UniProt Q9UGN5); assay: Inhibition of PARP2 (unknown origin)
[6] = biological target: Poly [ADP-ribose] polymerase 1 (Homo sapiens, UniProt P09874); assay: Inhibition of PARP1 (unknown origin)
Poly [ADP-ribose] polymerase 1, sequence (P09874 whole entry): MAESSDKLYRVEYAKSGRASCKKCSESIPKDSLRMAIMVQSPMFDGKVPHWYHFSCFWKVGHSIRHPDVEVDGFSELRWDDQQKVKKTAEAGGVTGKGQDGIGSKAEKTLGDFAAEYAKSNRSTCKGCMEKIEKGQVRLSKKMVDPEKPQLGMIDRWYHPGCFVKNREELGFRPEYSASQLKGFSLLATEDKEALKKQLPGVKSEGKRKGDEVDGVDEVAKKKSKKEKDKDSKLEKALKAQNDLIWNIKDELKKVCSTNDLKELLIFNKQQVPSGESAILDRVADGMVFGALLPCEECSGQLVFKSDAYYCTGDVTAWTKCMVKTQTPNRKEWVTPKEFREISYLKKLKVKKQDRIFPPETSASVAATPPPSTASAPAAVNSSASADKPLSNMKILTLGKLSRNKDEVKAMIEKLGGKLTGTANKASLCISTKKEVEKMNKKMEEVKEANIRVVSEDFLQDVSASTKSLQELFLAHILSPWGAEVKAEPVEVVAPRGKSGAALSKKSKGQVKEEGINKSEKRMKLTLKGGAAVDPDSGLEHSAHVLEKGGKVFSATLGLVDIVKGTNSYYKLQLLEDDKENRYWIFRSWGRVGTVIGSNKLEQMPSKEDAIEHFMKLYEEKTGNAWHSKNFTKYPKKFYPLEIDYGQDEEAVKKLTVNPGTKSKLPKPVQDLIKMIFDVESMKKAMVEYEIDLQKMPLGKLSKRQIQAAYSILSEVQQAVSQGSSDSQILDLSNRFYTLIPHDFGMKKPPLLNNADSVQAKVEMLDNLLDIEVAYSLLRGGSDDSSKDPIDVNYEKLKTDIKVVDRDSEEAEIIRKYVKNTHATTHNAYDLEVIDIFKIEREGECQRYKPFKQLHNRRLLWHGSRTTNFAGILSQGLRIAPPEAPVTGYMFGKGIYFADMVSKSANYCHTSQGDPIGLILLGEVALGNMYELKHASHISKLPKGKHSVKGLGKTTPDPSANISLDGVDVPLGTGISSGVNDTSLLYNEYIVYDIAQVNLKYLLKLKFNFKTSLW

Poly [ADP-ribose] polymerase 2, sequence (Q9UGN5 whole entry): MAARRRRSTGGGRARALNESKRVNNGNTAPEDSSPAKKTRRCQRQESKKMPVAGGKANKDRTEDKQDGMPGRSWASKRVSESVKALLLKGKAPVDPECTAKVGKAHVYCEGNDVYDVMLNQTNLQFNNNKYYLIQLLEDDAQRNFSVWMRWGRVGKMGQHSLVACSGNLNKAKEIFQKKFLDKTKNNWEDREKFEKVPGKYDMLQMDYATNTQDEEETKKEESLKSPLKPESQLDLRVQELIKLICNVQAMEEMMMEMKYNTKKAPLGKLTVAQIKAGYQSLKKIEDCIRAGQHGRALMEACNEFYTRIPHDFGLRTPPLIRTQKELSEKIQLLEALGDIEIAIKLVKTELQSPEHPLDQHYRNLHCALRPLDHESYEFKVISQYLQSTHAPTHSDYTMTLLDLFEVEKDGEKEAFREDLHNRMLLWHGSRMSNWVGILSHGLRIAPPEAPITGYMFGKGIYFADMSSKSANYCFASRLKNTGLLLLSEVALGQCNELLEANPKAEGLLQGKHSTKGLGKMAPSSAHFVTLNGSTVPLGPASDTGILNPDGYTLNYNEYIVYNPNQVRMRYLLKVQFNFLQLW

IC50 (Tankyrase 1/2 [1]) [µM]	IC50 [2] [µM]	IC50 (Tankyrase 1/2 [3]) [µM]	EC50 (Tankyrase 1/2 [4]) [µM]	IC50 [5] [µM]	IC50 [6] [µM]	SMILES
2	0.15					CC1(C)CC(=O)Nc2cc(NC(=O)c3cc(-c4ccc5nc(N)ncc5c4)ccc3F)ccc21
0.392	0.009	0.043	0.474	> 170	> 85	CC1(C)OC(=O)N([C@H]2CC[C@H](c3cnc(N)c(C#N)c3)CC2)[C@H]1c1ccccc1
	0.148					CC1(C)OC(=O)N([C@H]2CC[C@H](c3ccc(N)nc3)CC2)[C@H]1c1ccccc1
